This note sets out measurements from patent US20150141336A1, “Pancreatic Peptide Compounds and Use” (Novo Nordisk A/S, priority 2012, published 2015).

The structures appear in SMILES notation. Numbered stars: 1 amine (or outer) side, 2 acyl side, 3 side chain; on linkers, the order of the positions; unused ones are H or OH. Side chains are listed from the residue outwards. Peptide text beside a SMILES is read from it. * marks the point of attachment. C18 diacid = O=C(O)CCCCCCCCCCCCCCCCC(=O)*; γGlu = O=C(O)[C@H](CCC(=O)[*:2])N[*:1]; AEEA = NCCOCCOCC(=O)O

A short description of this data set: Assay (II) PK i.v. minipig, in vivo half-life. Details: species or system Göttingen mini-pigs. Conditions: male, Göttingen, minipig, iv, Half-life minipig, Assay (II). The gist of the method: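 Plasma levels after a single 6 nmol/kg intravenous dose in five male Göttingen mini-pigs were measured by TFC/LC/MS/MS against spiked-plasma calibration, sampling to 240 h. Vehicle: 50 mM K2HPO4, 0.05% tween 80, pH 8.0. Individual profiles analysed non-compartmentally for half-life.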
What is called half-life is the time in which the quantity being followed falls by half. Take `CC[C@H](C)[C@H](NC(=O)[C@H](Cc1ccc(O)cc1)NC(=O)[C@H](CCCNC(=N)N)NC(=O)[C@H](CCCNC(=N)N)NC(=O)[C@H](CC(C)C)NC(=O)[C@H](CC(=O)O)NC(=O)[C@H](C)NC(=O)[C@H](C)NC(=O)[C@H](Cc1ccc(O)cc1)NC(=O)[C@H](CCC(N)=O)NC(=O)[C@H](C)NC(=O)[C@H](CCSC)NC(=O)[C@H](CCC(N)=O)NC(=O)[C@H](CCC(=O)O)NC(=O)[C@@H]1CCCN1C(=O)[C@@H](NC(=O)[C@H](C)NC(=O)[C@H](CC(N)=O)NC(=O)[C@H](CC(=O)O)NC(=O)CNC(=O)[C@@H]1CCCN1C(=O)[C@H](Cc1ccc(O)cc1)NC(=O)[C@H](CCCCNC(=O)COCCOCCNC(=O)COCCOCCNC(=O)CC[C@H](NC(=O)CCCCCCCCCCCCCCCCC(=O)O)C(=O)O)NC(=O)[C@@H]1CCCN1C(=O)[C@H](CCC(=O)O)NC(=O)[C@@H](N)CC(C)C)[C@@H](C)O)C(=O)N[C@@H](CC(N)=O)C(=O)N[C@@H](CCSC)C(=O)N[C@@H](CC(C)C)C(=O)N[C@H](C(=O)N[C@@H](CCCNC(=N)N)C(=O)N1CCC[C@H]1C(=O)N[C@@H](CCCNC(=N)N)C(=O)N[C@@H](Cc1ccc(O)cc1)C(N)=O)[C@@H](C)O` [Compound BJ]: the half-life was 29 h.

On to `CC[C@H](C)[C@H](NC(=O)[C@H](Cc1ccc(O)cc1)NC(=O)[C@H](CCCNC(=N)N)NC(=O)[C@H](CCCNC(=N)N)NC(=O)[C@H](CC(C)C)NC(=O)[C@H](CC(=O)O)NC(=O)[C@H](C)NC(=O)[C@H](C)NC(=O)[C@H](Cc1ccc(O)cc1)NC(=O)[C@H](CCC(N)=O)NC(=O)[C@H](C)NC(=O)[C@H](CCSC)NC(=O)[C@H](CCC(N)=O)NC(=O)[C@H](CCC(=O)O)NC(=O)[C@@H]1CCCN1C(=O)[C@@H](NC(=O)[C@H](C)NC(=O)[C@H](CC(N)=O)NC(=O)[C@H](CC(=O)O)NC(=O)CNC(=O)[C@@H]1CCCN1C(=O)[C@H](Cc1ccc(O)cc1)NC(=O)[C@@H](NC(=O)[C@H](CCCCNC(=O)COCCOCCNC(=O)COCCOCCNC(=O)CC[C@H](NC(=O)CCCCCCCCCCCCCCCCC(=O)O)C(=O)O)NC(=O)[C@H](CCC(=O)O)NC(=O)[C@@H](N)CC(C)C)C(C)C)[C@@H](C)O)C(=O)N[C@@H](CC(N)=O)C(=O)N[C@@H](CCSC)C(=O)N[C@@H](CC(C)C)C(=O)N[C@H](C(=O)N[C@@H](CCCNC(=N)N)C(=O)N1CCC[C@H]1C(=O)N[C@@H](CCCNC(=N)N)C(=O)N[C@@H](Cc1ccc(O)cc1)C(N)=O)[C@@H](C)O` [Compound BK], for which the half-life is 54 h.

In the case of `CC[C@H](C)[C@H](NC(=O)[C@H](Cc1ccc(O)cc1)NC(=O)[C@H](CCCNC(=N)N)NC(=O)[C@H](CCCNC(=N)N)NC(=O)[C@H](CC(C)C)NC(=O)[C@H](CC(=O)O)NC(=O)[C@H](C)NC(=O)[C@H](C)NC(=O)[C@H](Cc1ccc(O)cc1)NC(=O)[C@H](CCC(N)=O)NC(=O)[C@H](C)NC(=O)[C@H](CCSC)NC(=O)[C@H](CCC(N)=O)NC(=O)[C@H](CCC(=O)O)NC(=O)[C@@H]1CCCN1C(=O)[C@@H](NC(=O)[C@H](C)NC(=O)[C@H](CC(N)=O)NC(=O)[C@H](CC(=O)O)NC(=O)CNC(=O)[C@@H]1CCCN1C(=O)[C@H](Cc1ccc(O)cc1)NC(=O)[C@@H](NC(=O)[C@@H]1CCCN1C(=O)[C@H](CCC(=O)O)NC(=O)[C@H](CC(C)C)NC(=O)[C@@H]1CCCN1)C(C)C)[C@@H](C)O)C(=O)N[C@@H](CC(N)=O)C(=O)N[C@@H](CCSC)C(=O)N[C@@H](CC(C)C)C(=O)N[C@@H](CCCCNC(=O)COCCOCCNC(=O)COCCOCCNC(=O)CC[C@H](NC(=O)CCCCCCCCCCCCCCCCC(=O)O)C(=O)O)C(=O)N[C@@H](CCCNC(=N)N)C(=O)N1CCC[C@H]1C(=O)N[C@@H](CCCNC(=N)N)C(=O)N[C@@H](Cc1ccc(O)cc1)C(N)=O` [Compound B] (H-PLEPVYPGDNATPEQMAQYAADLRRYINMLK([AEEA-AEEA-γGlu-C18 diacid])RPRY-NH2; N-terminus and C-terminus assumed), the half-life is 93 h.

As to `CC[C@H](C)[C@H](NC(=O)[C@H](Cc1ccc(O)cc1)NC(=O)[C@H](CCCNC(=N)N)NC(=O)[C@H](CCCNC(=N)N)NC(=O)[C@H](CC(C)C)NC(=O)[C@H](CC(=O)O)NC(=O)[C@H](C)NC(=O)[C@H](C)NC(=O)[C@H](Cc1ccc(O)cc1)NC(=O)[C@H](CCC(N)=O)NC(=O)[C@H](C)NC(=O)[C@H](CCSC)NC(=O)[C@H](CCC(N)=O)NC(=O)[C@H](CCC(=O)O)NC(=O)[C@@H]1CCCN1C(=O)[C@@H](NC(=O)[C@H](C)NC(=O)[C@H](CC(N)=O)NC(=O)[C@H](CC(=O)O)NC(=O)CNC(=O)[C@@H]1CCCN1C(=O)[C@H](Cc1ccc(O)cc1)NC(=O)[C@@H](NC(=O)[C@@H]1CCCN1C(=O)[C@H](CCC(=O)O)NC(=O)[C@H](CC(C)C)NC(=O)[C@@H]1CCCN1)C(C)C)[C@@H](C)O)C(=O)N[C@@H](CC(N)=O)C(=O)N[C@@H](CCSC)C(=O)N[C@@H](CCCCNC(=O)COCCOCCNC(=O)COCCOCCNC(=O)CC[C@H](NC(=O)CCCCCCCCCCCCCCCCC(=O)O)C(=O)O)C(=O)N[C@H](C(=O)N[C@@H](CCCNC(=N)N)C(=O)N1CCC[C@H]1C(=O)N[C@@H](CCCNC(=N)N)C(=O)N[C@@H](Cc1ccc(O)cc1)C(N)=O)[C@@H](C)O` [Compound C] (H-PLEPVYPGDNATPEQMAQYAADLRRYINMK([AEEA-AEEA-γGlu-C18 diacid])TRPRY-NH2; N-terminus and C-terminus assumed), the half-life is 94 h.

For the molecule `CC[C@H](C)[C@H](NC(=O)[C@H](Cc1ccc(O)cc1)NC(=O)[C@H](CCCNC(=N)N)NC(=O)[C@H](CCCNC(=N)N)NC(=O)[C@H](CC(C)C)NC(=O)[C@H](CC(=O)O)NC(=O)[C@H](C)NC(=O)[C@H](C)NC(=O)[C@H](Cc1ccc(O)cc1)NC(=O)[C@H](CCC(N)=O)NC(=O)[C@H](C)NC(=O)[C@H](CCSC)NC(=O)[C@H](CCC(N)=O)NC(=O)[C@H](CCC(=O)O)NC(=O)[C@@H]1CCCN1C(=O)[C@@H](NC(=O)[C@H](C)NC(=O)[C@H](CC(N)=O)NC(=O)[C@H](CC(=O)O)NC(=O)CNC(=O)[C@@H]1CCCN1C(=O)[C@H](Cc1ccc(O)cc1)NC(=O)[C@@H](NC(=O)[C@@H]1CCCN1C(=O)[C@H](CCC(=O)O)NC(=O)[C@H](CC(C)C)NC(=O)[C@@H]1CCCN1)C(C)C)[C@@H](C)O)C(=O)N[C@@H](CC(N)=O)C(=O)N[C@@H](CCCCNC(=O)COCCOCCNC(=O)COCCOCCNC(=O)CC[C@H](NC(=O)CCCCCCCCCCCCCCCCC(=O)O)C(=O)O)C(=O)N[C@@H](CC(C)C)C(=O)N[C@H](C(=O)N[C@@H](CCCNC(=N)N)C(=O)N1CCC[C@H]1C(=O)N[C@@H](CCCNC(=N)N)C(=O)N[C@@H](Cc1ccc(O)cc1)C(N)=O)[C@@H](C)O` [Compound D] (H-PLEPVYPGDNATPEQMAQYAADLRRYINK([AEEA-AEEA-γGlu-C18 diacid])LTRPRY-NH2; N-terminus and C-terminus assumed), the half-life is 77 h.

Consider `CC[C@H](C)[C@H](NC(=O)[C@H](Cc1ccc(O)cc1)NC(=O)[C@H](CCCNC(=N)N)NC(=O)[C@H](CCCNC(=N)N)NC(=O)[C@H](CC(C)C)NC(=O)[C@H](CC(=O)O)NC(=O)[C@H](C)NC(=O)[C@H](C)NC(=O)[C@H](Cc1ccc(O)cc1)NC(=O)[C@H](CCC(N)=O)NC(=O)[C@H](C)NC(=O)[C@H](CCSC)NC(=O)[C@H](CCC(N)=O)NC(=O)[C@H](CCC(=O)O)NC(=O)[C@@H]1CCCN1C(=O)[C@@H](NC(=O)[C@H](C)NC(=O)[C@H](CC(N)=O)NC(=O)[C@H](CC(=O)O)NC(=O)CNC(=O)[C@@H]1CCCN1C(=O)[C@H](Cc1ccc(O)cc1)NC(=O)[C@@H](NC(=O)[C@@H]1CCCN1C(=O)[C@H](CCC(=O)O)NC(=O)[C@H](CC(C)C)NC(=O)[C@@H]1CCCN1)C(C)C)[C@@H](C)O)C(=O)N[C@@H](CCCCNC(=O)COCCOCCNC(=O)COCCOCCNC(=O)CC[C@H](NC(=O)CCCCCCCCCCCCCCCCC(=O)O)C(=O)O)C(=O)N[C@@H](CCSC)C(=O)N[C@@H](CC(C)C)C(=O)N[C@H](C(=O)N[C@@H](CCCNC(=N)N)C(=O)N1CCC[C@H]1C(=O)N[C@@H](CCCNC(=N)N)C(=O)N[C@@H](Cc1ccc(O)cc1)C(N)=O)[C@@H](C)O` [Compound E] (H-PLEPVYPGDNATPEQMAQYAADLRRYIK([AEEA-AEEA-γGlu-C18 diacid])MLTRPRY-NH2; N-terminus and C-terminus assumed), for which the half-life is 110 h.

For the molecule `CC[C@H](C)[C@H](NC(=O)[C@H](CCCCNC(=O)COCCOCCNC(=O)COCCOCCNC(=O)CC[C@H](NC(=O)CCCCCCCCCCCCCCCCC(=O)O)C(=O)O)NC(=O)[C@H](CCCNC(=N)N)NC(=O)[C@H](CCCNC(=N)N)NC(=O)[C@H](CC(C)C)NC(=O)[C@H](CC(=O)O)NC(=O)[C@H](C)NC(=O)[C@H](C)NC(=O)[C@H](Cc1ccc(O)cc1)NC(=O)[C@H](CCC(N)=O)NC(=O)[C@H](C)NC(=O)[C@H](CCSC)NC(=O)[C@H](CCC(N)=O)NC(=O)[C@H](CCC(=O)O)NC(=O)[C@@H]1CCCN1C(=O)[C@@H](NC(=O)[C@H](C)NC(=O)[C@H](CC(N)=O)NC(=O)[C@H](CC(=O)O)NC(=O)CNC(=O)[C@@H]1CCCN1C(=O)[C@H](Cc1ccc(O)cc1)NC(=O)[C@@H](NC(=O)[C@@H]1CCCN1C(=O)[C@H](CCC(=O)O)NC(=O)[C@H](CC(C)C)NC(=O)[C@@H]1CCCN1)C(C)C)[C@@H](C)O)C(=O)N[C@@H](CC(N)=O)C(=O)N[C@@H](CCSC)C(=O)N[C@@H](CC(C)C)C(=O)N[C@H](C(=O)N[C@@H](CCCNC(=N)N)C(=O)N1CCC[C@H]1C(=O)N[C@@H](CCCNC(=N)N)C(=O)N[C@@H](Cc1ccc(O)cc1)C(N)=O)[C@@H](C)O` [Compound G] (H-PLEPVYPGDNATPEQMAQYAADLRRK([AEEA-AEEA-γGlu-C18 diacid])INMLTRPRY-NH2; N-terminus and C-terminus assumed), the half-life was 96 h.
